# Measured values taken from PMC8533299, “Synthesis, In Silico Study, and Anti-Cancer Activity of Thiosemicarbazone Derivatives” (Biomedicines, 2021).
# Several values for one entry are separate records, joined by “and”; a condition that tells them apart may be missing. Equal values may be shown once.
# Tests used:
# B16-F0 (Mouse melanoma) = assay: MTT test on B16-F0 cells; assay type: cell-based; conditions: Mus musculus, B16F0; B16-F0 cells, MTT, till 48 h
# Protocol: (§1) The in vitro anticancer activities of the synthesized compounds were conducted using different cancerous and non-cancerous cell lines viz B16-F0 (Mouse melanoma), mouse Ehrlich Ascites Carcinoma (EAC), MCF-7 (Human breast cancer), MCF-10A (Human breast epithelial cells), and NIH/3T3 (Mouse fibroblast cells). All cell lines were procured from the National Centre for Cell Science, Pune, India. The procured cells were cultured in a six-well culture plate with Dulbecco’s Modified Eagle’s Medium (DMEM) supplemented with 10% fetal bovine serum in a humid CO2 incubator with 5% carbon dioxide at 37 °C.
# (§2) The anti-cancer effect and cytotoxicity of both 3-MBTSc and 4-NBTSc compounds were evaluated against different cancerous (MCF-7, EAC, B16-F0 cells) and noncancerous cells (MCF-10A, NIH-3T3 cells) using MTT test. In brief, the stock solutions of both the tested compounds were prepared by dissolving 1 mg of each compound in 1 mL of DMSO separately. Then, four different concentrations (5, 10, 12, and 20 µg/mL) of both compounds were used during the test along with the negative control. Also, 10 μg/mL of doxorubicin (Dox) was used as the positive control during the experiment. Both untreated and treated cells were incubated for next 24 and 48 h. Then, all the steps during the whole experiment were carried out by our earlier reported procedure. Later, the absorbance values were measured by an ELISA reader (Biorad, Hercules, CA, USA) at 570 nm wavelength using secondary wavelength as a reference at 620 nm and the percentages of cell viability was calculated using the following formula [59, 60, 61]. Cell viability (%)= Mean absorbance of treated cells/Mean absorbance of untreated cells × 100
# (§3) Based on the cell viability data, the IC50 values of both compounds were calculated on different cancer cells by plotting their corresponding dose-responsive graphs.
# (§4) The obtained data were statistically analyzed. The descriptive analysis was done and the IC50 values were calculated by fitting the sigmoidal dose responsive graph using GraphPad Prism (GraphPad Software, Inc., La Jolla, CA, USA). […]
# [1] = tested on: mouse Ehrlich Ascites Carcinoma (EAC); assay: MTT test on EAC cells; assay type: cell-based; conditions: Mus musculus, Ehrlich; EAC cells, MTT, till 48 h
# Protocol: as §1, §2, §3, §4
# [2] = MTT cytotoxicity test on MCF-10A cells; assay type: cell-based, Human; conditions: human, MCF-10A breast epithelial cells
# Protocol: as §1, §2
# [3] = tested on: MCF-10A (Human breast epithelial cells); assay: MTT cytotoxicity test on MCF-10A cells; assay type: cell-based; conditions: 48 h
# Protocol: as §1, §2
# MCF-7, EAC, B16-F0 cells = assay: MTT test, cancer cell lines overall; assay type: cell-based; conditions: over the cell lines tested; read-out: IC50 (range over treated cells)
# Protocol: as §1
# The anti-cancer effect and cytotoxicity of both 3-MBTSc and 4-NBTSc compounds were evaluated against different cancerous (MCF-7, EAC, B16-F0 cells) and noncancerous cells (MCF-10A, NIH-3T3 cells) using MTT test. […] Later, the absorbance values were measured by an ELISA reader (Biorad, Hercules, CA, USA) at 570 nm wavelength using secondary wavelength as a reference at 620 nm and the percentages of cell viability was calculated using the following formula [59, 60, 61]. Cell viability (%)= Mean absorbance of treated cells/Mean absorbance of untreated cells × 100
# as §3
# The obtained data were statistically analyzed. […]
# [4] = tested on: gene expression in EAC cells; assay: RT-qPCR gene expression in EAC cells; assay type: cell-based, mouse
# Protocol: (§5) Total mRNA was isolated and extracted by Trizol reagent as described in an earlier method. RevertAid First Strand cDNA synthesis kit (Thermo Fisher Scientific, Waltham, MA, USA) was used to synthesize cDNA in a total reaction volume of 20 μL containing oligo-dT primers, RiboLock RNase inhibitor, and reverse transcriptase. Gene-specific primers were used to amplify cDNAs in RT-qPCR machine (Applied Biosystems, Waltham, MA, USA).
# [5] = tested on: gene expression in B16-F0 melanoma cells; assay: RT-qPCR gene expression in B16-F0 cells; assay type: cell-based, Mouse
# Protocol: as §5
# [6] = EAC cells treated, GAPDH housekeeping gene
# [7] = EAC cells, difference of RQ values
# [8] = B16-F0 cells treated, GAPDH housekeeping gene
# [9] = B16-F0 cells, difference of RQ values
smiles,measurement,setting,value
"NC(=S)N[N-][CH+]c1ccc([N+](=O)[O-])cc1 [4-NBTSc, 4-Nitrobenzaldehyde thiosemicarbazone]",IC50,B16-F0 (Mouse melanoma),7.129 ± 0.012 µg/mL
same,IC50,[1],3.832 ± 0.014 µg/mL
same,viability at 48 h,[2],> 80%
same,toxicity,[3],less than 20%
same,IC50,"MCF-7, EAC, B16-F0 cells",2.8 to 7.59 µg/mL
same,BCl2 Treated (RQ value),[4]; [6],6.195 ± 0.021
same,BRCA1 Treated (RQ value),[4]; [6],7.195 ± 0.021
same,Bax Treated (RQ value),[4]; [6],2.945 ± 0.035
same,Caspase-3 Treated (RQ value),[4]; [6],4.23 ± 0.028
same,Dmp1 Treated (RQ value),[4]; [6],4.1 ± 0.014
same,Fos Treated (RQ value),[4]; [6],3.095 ± 0.021
same,MTS 1 Treated (RQ value),[4]; [6],1.945 ± 0.035
same,Mdm2 Treated (RQ value),[4]; [6],4.955 ± 0.021
same,PKC Treated (RQ value),[4]; [6],7.13 ± 0.028
same,PTEN Treated (RQ value),[4]; [6],8.65 ± 0.028
same,RAS Treated (RQ value),[4]; [6],3.13 ± 0.028
same,p19 Arf Treated (RQ value),[4]; [6],4.605 ± 0.021
same,p21 Treated (RQ value),[4]; [6],3.125 ± 0.035
same,p53 Treated (RQ value),[4]; [6],3.165 ± 0.064
same,pRB Treated (RQ value),[4]; [6],6.095 ± 0.035
same,BCl2 Fold Change (EAC treated-EAC untreated),[4]; [7],3.105 fold
same,BRCA1 Fold Change (EAC treated-EAC untreated),[4]; [7],5.135 fold and 5.13 fold
same,Bax Fold Change (EAC treated-EAC untreated),[4]; [7],-0.105 fold
same,Caspase-3 Fold Change (EAC treated-EAC untreated),[4]; [7],1.33 fold
same,Dmp1 Fold Change (EAC treated-EAC untreated),[4]; [7],1.95 fold
same,MTS 1 Fold Change (EAC treated-EAC untreated),[4]; [7],0.04 fold
same,Mdm2 Fold Change (EAC treated-EAC untreated),[4]; [7],-0.25 fold
same,PTEN Fold Change (EAC treated-EAC untreated),[4]; [7],7.42 fold
same,p19 Arf Fold Change (EAC treated-EAC untreated),[4]; [7],1.855 fold
same,p21 Fold Change (EAC treated-EAC untreated),[4]; [7],2.13 fold
same,p53 Fold Change (EAC treated-EAC untreated),[4]; [7],2.105 fold
same,pRB Fold Change (EAC treated-EAC untreated),[4]; [7],4.19 fold
same,BCl2 Treated (RQ value),[5]; [8],2.36 ± 0.028
same,BRCA1 Treated (RQ value),[5]; [8],1.94 ± 0.028
same,Bax Treated (RQ value),[5]; [8],6.09 ± 0.028
same,Caspase-3 Treated (RQ value),[5]; [8],5.215 ± 0.021
same,Dmp1 Treated (RQ value),[5]; [8],7.19 ± 0.028
same,Fos Treated (RQ value),[5]; [8],2.905 ± 0.021
same,MTS 1 Treated (RQ value),[5]; [8],4.865 ± 0.021
same,Mdm2 Treated (RQ value),[5]; [8],6.1 ± 0.014
same,PKC Treated (RQ value),[5]; [8],7.14 ± 0.028
same,PTEN Treated (RQ value),[5]; [8],6.97 ± 0.014
same,RAS Treated (RQ value),[5]; [8],4.145 ± 0.035
same,p19 Arf Treated (RQ value),[5]; [8],3.145 ± 0.035
same,p21 Treated (RQ value),[5]; [8],4.12 ± 0.014
same,p53 Treated (RQ value),[5]; [8],3.185 ± 0.021
same,pRB Treated (RQ value),[5]; [8],1.06 ± 0.085
same,BCl2 Fold Change (B16-F0 treated-B16-F0 untreated),[5]; [9],0.27 fold
same,BRCA1 Fold Change (B16-F0 treated-B16-F0 untreated),[5]; [9],0.14 fold
same,Bax Fold Change (B16-F0 treated-B16-F0 untreated),[5]; [9],3.355 fold and 3.35 fold
same,Caspase-3 Fold Change (B16-F0 treated-B16-F0 untreated),[5]; [9],2.615 fold
same,Dmp1 Fold Change (B16-F0 treated-B16-F0 untreated),[5]; [9],4.7 fold
same,MTS 1 Fold Change (B16-F0 treated-B16-F0 untreated),[5]; [9],2.93 fold
same,Mdm2 Fold Change (B16-F0 treated-B16-F0 untreated),[5]; [9],-1.14 fold
same,PTEN Fold Change (B16-F0 treated-B16-F0 untreated),[5]; [9],4.825 fold and 4.82 fold
same,p19 Arf Fold Change (B16-F0 treated-B16-F0 untreated),[5]; [9],1.81 fold
same,p21 Fold Change (B16-F0 treated-B16-F0 untreated),[5]; [9],1.93 fold
same,p53 Fold Change (B16-F0 treated-B16-F0 untreated),[5]; [9],1.025 fold
same,pRB Fold Change (B16-F0 treated-B16-F0 untreated),[5]; [9],-0.54 fold
